We go through five compounds from paper PMC10709440, “High-throughput ligand profile characterization in novel cell lines expressing seven heterologous insect olfactory receptors for the detection of volatile plant biomarkers” (Scientific Reports, 2023).

One assay concerns the target T1, Drosophila OR13a (Drosophila melanogaster, UniProt Q9VXL0).
T1 construct: expressed in transfected cells
T1 sequence (Q9VXL0 1-418): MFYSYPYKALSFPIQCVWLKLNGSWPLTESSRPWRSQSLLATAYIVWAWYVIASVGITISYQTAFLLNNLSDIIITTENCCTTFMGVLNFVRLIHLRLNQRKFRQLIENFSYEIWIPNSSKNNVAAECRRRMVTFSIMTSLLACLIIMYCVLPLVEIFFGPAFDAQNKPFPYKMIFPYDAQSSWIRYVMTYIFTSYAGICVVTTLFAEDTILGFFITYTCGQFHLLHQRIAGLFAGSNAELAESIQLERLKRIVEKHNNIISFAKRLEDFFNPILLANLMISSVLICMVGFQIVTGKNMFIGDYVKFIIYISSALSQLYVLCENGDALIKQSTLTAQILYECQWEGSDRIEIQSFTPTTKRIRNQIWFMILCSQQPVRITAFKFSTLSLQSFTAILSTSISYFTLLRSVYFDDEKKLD
T1 sequence (Q9VNB5 1-486 partner): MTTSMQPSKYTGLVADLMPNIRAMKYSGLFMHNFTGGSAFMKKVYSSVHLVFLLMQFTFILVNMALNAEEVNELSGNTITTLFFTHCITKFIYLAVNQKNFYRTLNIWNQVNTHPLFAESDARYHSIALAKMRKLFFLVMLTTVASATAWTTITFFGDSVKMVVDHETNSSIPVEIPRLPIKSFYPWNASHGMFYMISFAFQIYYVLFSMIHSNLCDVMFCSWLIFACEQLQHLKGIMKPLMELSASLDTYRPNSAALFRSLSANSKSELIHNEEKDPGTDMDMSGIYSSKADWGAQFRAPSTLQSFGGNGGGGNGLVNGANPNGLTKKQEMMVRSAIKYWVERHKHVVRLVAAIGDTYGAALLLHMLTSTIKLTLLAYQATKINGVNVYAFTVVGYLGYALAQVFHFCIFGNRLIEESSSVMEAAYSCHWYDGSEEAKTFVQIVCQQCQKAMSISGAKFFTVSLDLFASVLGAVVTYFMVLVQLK
The assay is described as follows: Calcium ion fluorescence (GCaMP6) assay, OR13a stable HEK293 cell line. Type of assay: cell-based. The following applies: for OR13a response (VUAA1-normalized) at 1 μM / OR13a response (VUAA1-normalized) at 10 μM / OR13a response (VUAA1-normalized) at 100 μM: OR13a cell line. The procedure, abridged:
(§1)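 Responses are VUAA1-normalized ΔF: each VOC-evoked calcium signal, (FMAX−F0)/F0 over 30 s after injection, divided by the same line's mean 50 µM VUAA1 response. Cells were doxycycline-induced HEK293 with GCaMP6 and the cognate Drosophila OR, in HEPES buffer pH 7.3; ligands tested 0.01–100 μM.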

In a further assay the target is T2, Drosophila OR98a (Drosophila melanogaster, UniProt Q9VAZ3).
T2 construct: expressed in transfected cells
T2 sequence (Q9VAZ3 1-397): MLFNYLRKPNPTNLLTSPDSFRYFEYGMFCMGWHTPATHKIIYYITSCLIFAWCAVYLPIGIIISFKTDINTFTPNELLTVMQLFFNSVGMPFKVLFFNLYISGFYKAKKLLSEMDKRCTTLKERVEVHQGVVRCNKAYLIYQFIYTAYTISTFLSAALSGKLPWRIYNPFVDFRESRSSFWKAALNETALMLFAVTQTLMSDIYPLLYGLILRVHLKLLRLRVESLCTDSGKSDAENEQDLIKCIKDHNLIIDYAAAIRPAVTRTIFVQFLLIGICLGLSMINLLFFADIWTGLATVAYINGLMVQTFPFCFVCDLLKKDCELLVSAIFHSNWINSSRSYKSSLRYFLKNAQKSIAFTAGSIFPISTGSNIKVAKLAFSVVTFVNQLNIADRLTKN
T2 sequence (Q9VNB5 1-486 partner): T1 sequence (Q9VNB5 1-486 partner)
The experiment in a line: Calcium ion fluorescence (GCaMP6) assay, OR98a stable HEK293 cell line. The assay is classed as cell-based. The following applies: for Average response / OR98a response (VUAA1-normalized) at 1 μM / OR98a response (VUAA1-normalized) at 10 μM / OR98a response (VUAA1-normalized) at 100 μM: OR98a cell line; for Average response: average of biological replicates, fraction of VUAA1 response. The procedure, abridged:
as §1

Where [1] appears, read: concentration 1, normalized fluorescence change, values below 0.05 threshold given as 0.
Setting [2] is: concentration 10, normalized fluorescence change, values below 0.05 threshold given as 0.
Where [3] appears, read: concentration 100, normalized fluorescence change, values below 0.05 threshold given as 0.
Where [4] appears, read: HEK293, read-out: OR13a Average response (VUAA1-normalized), 1 μM VOC, 50 μM VUAA1 = 1, responses not exceeding 0.05 considered 0.
[5] abbreviates: HEK293, read-out: OR13a Average response (VUAA1-normalized), 10 μM VOC, 50 μM VUAA1 = 1, responses not exceeding 0.05 considered 0.
Setting [6] is: HEK293, read-out: OR13a Average response (VUAA1-normalized), 100 μM VOC, 50 μM VUAA1 = 1, responses not exceeding 0.05 considered 0.
[7] abbreviates: ligand concentration 1 (unit not given), threshold 0.05, below shown as 0.
[8] abbreviates: ligand concentration 10 (unit not given), threshold 0.05, below shown as 0.
Setting [9] is: ligand concentration 100 (unit not given), threshold 0.05, below shown as 0.
Where [10] appears, read: HEK293, read-out: Average response.
Setting [11] is: HEK293, read-out: OR13a response (VUAA1-normalized response), VOC concentration 1 μM.
Setting [12] is: HEK293, read-out: OR13a response (VUAA1-normalized response), VOC concentration 10 μM.
Setting [13] is: HEK293, read-out: OR13a response (VUAA1-normalized response), VOC concentration 100 μM.
Setting [14] is: HEK293, read-out: OR98a response (VUAA1-normalized response).
Setting [15] is: HEK293, read-out: OR98a Average response (VUAA1-normalized).

SMILES strings stand for the structures. Where two headings read alike, the source gives them in different places.

Consider `C=C1[C@H]2CC[C@@H]3[C@H]2C(C)(C)CCC[C@]13C` [(+)-longifolene], for which the “OR13a Average response (VUAA1-normalized)” value on Drosophila OR13a (1 μM VOC, 50 μM VUAA1 = 1, responses not exceeding 0.05 considered 0) amounted to 0.00; on Drosophila OR13a (10 μM VOC, 50 μM VUAA1 = 1, responses not exceeding 0.05 considered 0), 0.037; at Drosophila OR13a (100 μM VOC, 50 μM VUAA1 = 1, responses not exceeding 0.05 considered 0) it was 0.00. Also, the “OR13a response (VUAA1-normalized response)” value at Drosophila OR13a (VOC concentration 1 μM), at Drosophila OR13a (VOC concentration 10 μM) and at Drosophila OR13a (VOC concentration 100 μM) was 0.00 in each case. Also, the “DF norm AVERAGE OR13a” value on Drosophila OR13a (setting [1]), on Drosophila OR13a (setting [2]) and on Drosophila OR13a (setting [3]) was 0 throughout. For the same compound, the “OR98a response (VUAA1-normalized response)” value amounted to 0.00 at Drosophila OR98a (VOC concentration 1 μM), 0.13 at Drosophila OR98a (VOC concentration 10 μM) and 0.00 on Drosophila OR98a (VOC concentration 100 μM). In addition, the results for the Average response at Drosophila OR98a (cc. 1 µM), at Drosophila OR98a (cc. 10 µM) and on Drosophila OR98a (cc. 100 µM) were 0.0106, 0.13 and 0.0176, respectively. Besides, the entries for the “DF norm AVERAGE OR98a” value at Drosophila OR98a (setting [1]), on Drosophila OR98a (setting [2]) and on Drosophila OR98a (setting [3]) were 0, 0.1258 and 0, respectively.

As to `Cc1ccccc1C` [o-xylene], the activation at 1 µM at Drosophila OR13a (setting [4]) and at Drosophila OR98a (setting [10]) was 0% each time. The activation at 10 µM at Drosophila OR13a (setting [5]) and at Drosophila OR98a (setting [10]) was 0% each time. The activation at 100 µM turned out to be 1.83% on Drosophila OR13a (setting [6]) and 0% on Drosophila OR98a (setting [10]). The “OR13a response (VUAA1-normalized) at 1 μM” value at Drosophila OR13a (VOC concentration 1 μM) is on record as 0.00. Moreover, the “OR13a response (VUAA1-normalized) at 10 μM” value on Drosophila OR13a (VOC concentration 10 μM) is recorded as 0.00. Besides, on Drosophila OR13a (VOC concentration 100 μM), the “OR13a response (VUAA1-normalized) at 100 μM” value came to 0.00. Moreover, the “DF norm AVERAGE OR13a” value at Drosophila OR13a (setting [7]), on Drosophila OR13a (setting [8]) and at Drosophila OR13a (setting [9]) was 0 in each case. Further, the “OR98a response (VUAA1-normalized) at 1 μM” value at Drosophila OR98a (VOC concentration 1 μM) was 0.00. Besides, the “OR98a response (VUAA1-normalized) at 10 μM” value on Drosophila OR98a (VOC concentration 10 μM) is listed as 0.00. For the same compound, at Drosophila OR98a (VOC concentration 100 μM), the “OR98a response (VUAA1-normalized) at 100 μM” value stood at 0.00. Moreover, the “DF norm AVERAGE OR98a” value on Drosophila OR98a (setting [7]), on Drosophila OR98a (setting [8]) and on Drosophila OR98a (setting [9]) was 0 in each case.

`CCCC(O)CC` (stereo not drawn) [3-hexanol]: the activation at 1 µM on Drosophila OR13a (setting [4]) worked out at 5%; at Drosophila OR13a (setting [11]), 0%; on Drosophila OR98a (setting [10]), 0%; on Drosophila OR98a (setting [14]) it was 0%. For the same compound, the activation at 10 µM is 4.43% on Drosophila OR13a (setting [5]), 0% at Drosophila OR13a (setting [12]), 19% on Drosophila OR98a (setting [10]) and 19% at Drosophila OR98a (setting [14]). For the same compound, the activation at 100 µM at Drosophila OR13a (setting [6]) came out at 1.88%; on Drosophila OR13a (setting [13]) it was 0%; on Drosophila OR98a (setting [10]), 1.15%; at Drosophila OR98a (setting [14]) it was 0%. Further, the “DF norm AVERAGE OR13a” value at Drosophila OR13a (setting [1]), at Drosophila OR13a (setting [2]) and at Drosophila OR13a (setting [3]) was 0 in each case. Besides, the figures for the “DF norm AVERAGE OR98a” value at Drosophila OR98a (setting [1]), at Drosophila OR98a (setting [2]) and on Drosophila OR98a (setting [3]) were 0, 0.194 and 0, respectively.

Take `CC(=O)OCCC(C)C` [isopentyl acetate]: the activation at 1 µM stood at 3% on Drosophila OR13a (setting [4]); 0% on Drosophila OR13a (setting [11]); 2.74% on Drosophila OR98a (setting [10]); 3% on Drosophila OR98a (setting [15]); 0% on Drosophila OR98a (setting [14]). The activation at 10 µM came to 4% at Drosophila OR13a (setting [5]); 0% on Drosophila OR13a (setting [12]); 2.22% at Drosophila OR98a (setting [10]); 2% at Drosophila OR98a (setting [15]); 0% on Drosophila OR98a (setting [14]). Also, the activation at 100 µM on Drosophila OR13a (setting [6]) amounted to 0%; at Drosophila OR13a (setting [13]), 0%; on Drosophila OR98a (setting [10]) it was 31%; at Drosophila OR98a (setting [15]) it was 31%; at Drosophila OR98a (setting [14]), 31%. Further, the “DF norm AVERAGE OR13a” value at Drosophila OR13a (setting [7]), at Drosophila OR13a (setting [8]) and on Drosophila OR13a (setting [9]) was 0 throughout. Further, the “DF norm AVERAGE OR98a” value turned out to be 0 on Drosophila OR98a (setting [7]), 0 on Drosophila OR98a (setting [8]) and 0.3069 at Drosophila OR98a (setting [9]).

Consider `CCCCCOC(C)=O` [pentyl acetate], for which the activation at 1 µM on Drosophila OR13a (setting [4]) was found to be 4%; on Drosophila OR98a (setting [10]), 1.61%; on Drosophila OR98a (setting [15]) it was 2%. The values for the activation at 10 µM at Drosophila OR13a (setting [5]), at Drosophila OR98a (setting [10]) and on Drosophila OR98a (setting [15]) were 0.671%, 4% and 4%, respectively. The figures for the activation at 100 µM at Drosophila OR13a (setting [6]), on Drosophila OR98a (setting [10]) and at Drosophila OR98a (setting [15]) were 4.32%, 14% and 14%, respectively. Besides, the “OR13a response (VUAA1-normalized) at 1 μM” value on Drosophila OR13a (VOC concentration 1 μM) was found to be 0.00. The “OR13a response (VUAA1-normalized) at 10 μM” value on Drosophila OR13a (VOC concentration 10 μM) is on record as 0.00. The “OR13a response (VUAA1-normalized) at 100 μM” value on Drosophila OR13a (VOC concentration 100 μM) is given as 0.00. In addition, the “DF norm AVERAGE OR13a” value at Drosophila OR13a (setting [7]), on Drosophila OR13a (setting [8]) and at Drosophila OR13a (setting [9]) was 0 throughout. On Drosophila OR98a (VOC concentration 1 μM), the “OR98a response (VUAA1-normalized) at 1 μM” value is 0.00. The “OR98a response (VUAA1-normalized) at 10 μM” value at Drosophila OR98a (VOC concentration 10 μM) came to 0.00. Moreover, the “OR98a response (VUAA1-normalized) at 100 μM” value on Drosophila OR98a (VOC concentration 100 μM) is on record as 0.14. The “DF norm AVERAGE OR98a” value at Drosophila OR98a (setting [7]) is listed as 0; on Drosophila OR98a (setting [8]) it was 0; at Drosophila OR98a (setting [9]) it was 0.136.
